“Also recorded” adds a separate entry of the source.
Columns and labels:
[1] = tested on: other identified HDAC proteins; experiment: Change in cellular protein abundance (TMT proteomics) in Kelly cells; type: cell-based, human; details: 1 μM, 5 hours, vs DMSO
Description: Lysis buffer (8 M Urea, 50 mM NaCl, 50 mM 4-(2hydroxyethyl)-1-piperazineethanesulfonic acid (EPPS) pH 8.5, protease and phosphatase inhibitors from Roche®) were added to the cell pellets and homogenized by 20 passes through a 21 gauge (1.25 in. long) needle to achieve a cell lysate with a protein concentration between 1-4 mg mL-1. A micro-BCA assay (Pierce™) was used to determine the final protein concentration in the cell lysate. 200 μg of protein for each sample were reduced and alkylated as described in Donovan et al., Elife 7:e38430 (2018).
Proteins were precipitated using methanol/chloroform. Four volumes of methanol were added to the cell lysate, followed by one volume of chloroform, and finally three volumes of water. The mixture was vortexed and centrifuged to separate the chloroform phase from the aqueous phase. […]
Anhydrous ACN was added to each peptide sample to a final concentration of 30% v/v, and labeling was induced with the addition of TMT reagent to each sample at a ratio of 1:4 peptide:TMT label. […] The sample channels were combined at a 1:1:1:1:1:1:1:1:1:1:1 ratio, desalted using Cis solid phase extraction cartridges (Waters®) and analyzed by LC-MS for channel ratio comparison. Samples were then combined using the adjusted volumes determined in the channel ratio analysis and dried down in a speed vacuum. […]

HDAC8 = molecular target: T1, HDAC8 (Homo sapiens, UniProt Q9BY41); experiment: as above; type: cell-based; design: relative change in relative protein abundance with treatment of Kelly cells; endogenous in cells; host or cells: Kelly cells; details: FIG. 3A
T1 sequence (Q9BY41 1-377): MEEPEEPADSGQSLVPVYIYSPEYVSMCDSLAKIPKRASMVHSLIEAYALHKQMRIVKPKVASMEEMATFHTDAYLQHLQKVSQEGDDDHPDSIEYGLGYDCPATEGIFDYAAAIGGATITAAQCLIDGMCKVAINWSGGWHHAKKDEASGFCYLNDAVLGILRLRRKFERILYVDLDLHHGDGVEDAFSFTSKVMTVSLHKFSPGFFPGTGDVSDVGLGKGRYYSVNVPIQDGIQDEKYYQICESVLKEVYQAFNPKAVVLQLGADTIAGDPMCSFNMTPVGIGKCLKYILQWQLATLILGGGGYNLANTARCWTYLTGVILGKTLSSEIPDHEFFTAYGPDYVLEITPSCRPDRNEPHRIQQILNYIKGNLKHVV

Cc1ncsc1-c1ccc([C@H](C)NC(=O)[C@@H]2C[C@@H](O)CN2C(=O)[C@@H](NC(=O)CCOCCOCCN(CCc2c[nH]c3ccccc23)Cc2ccc(/C=C/C(=O)NO)cc2)C(C)(C)C)cc1 [Compound 2, (2S,4R)-1-((S)-14-(tert-butyl)-3-(4-((E)-3-(hydroxyamino)-3-oxoprop-1-en-1-yl)benzyl)-1-(1H-indol-3-yl)-12-oxo-6,9-dioxa-3,13-diazapentadecan-15-oyl)-4-hydroxy-N—((S)-1-(4-(4-methylthiazol-5-yl)phenyl)ethyl)pyrrolidine-2-carboxamide]
cellular protein levels of the other identified HDAC proteins (heat map FIG. 2) [1]: did not affect

Cc1ncsc1-c1ccc(CNC(=O)[C@@H]2C[C@@H](O)CN2C(=O)[C@@H](NC(=O)C2(F)CC2)C(C)(C)C)c(OCCCCCN(CCc2c[nH]c3ccccc23)Cc2ccc(/C=C/C(=O)NO)cc2)c1 [Compound 7, (2S,4R)—N-(2-((5-((2-(1H-indol-3-yl)ethyl)(4-((E)-3-(hydroxyamino)-3-oxoprop-1-en-1-yl)benzyl)amino)pentyl)oxy)-4-(4-methylthiazol-5-yl)benzyl)-1-((S)-2-(1-fluorocyclopropane-1-carboxamido)-3,3-dimethylbutanoyl)-4-hydroxypyrrolidine-2-carboxamide]
HDAC8 protein levels, relative protein abundance compared to DMSO control (HDAC8): promote degradation; also recorded: significant and selective reduction
